Experimental data: the kinase profiling compilation of Christmann-Franck et al. (2016)

Key:
Assay in all cases: radiometric filter-binding kinase assay
AURKA (human) = AURKA (human) (UniProt O14965)
BRSK1 (human) = BRSK1 (human) (UniProt Q8TDC3)
BRSK2 (human) = BRSK2 (human) (UniProt Q8IWQ3)
CDK2 CCNA2 (human) = CDK2 CCNA2 (human) (UniProt P20248+P24941)
CLK2 (human) = CLK2 (human) (UniProt P49760)
CSK (human) = CSK (human) (UniProt P41240)
CSNK1D (human) = CSNK1D (human) (UniProt P48730)
EPHA4 (human) = EPHA4 (human) (UniProt P54764)
EPHB2 (human) = EPHB2 (human) (UniProt P29323)
FGFR1 (human) = FGFR1 (human) (UniProt P11362)
FLT1 (human) = FLT1 (human) (UniProt P17948)
INSR (human) = INSR (human) (UniProt P06213)
INSRR (human) = INSRR (human) (UniProt P14616)
IRAK4 (human) = IRAK4 (human) (UniProt Q9NWZ3)
JAK2 JH1 JH2 (human) = JAK2 JH1 JH2 (human) (UniProt O60674)
MAP2K2 (human) = MAP2K2 (human) (UniProt P36507)
MAP3K11 (human) = MAP3K11 (human) (UniProt Q16584)
MAP3K7 TAB1 (human) = MAP3K7 TAB1 (human) (UniProt Q15750+O43318)
MAPK12 (human) = MAPK12 (human) (UniProt P53778)
MAPK8 (human) = MAPK8 (human) (UniProt P45983)
MAPKAPK3 (human) = MAPKAPK3 (human) (UniProt Q16644)
MARK4 (human) = MARK4 (human) (UniProt Q96L34)
MELK (human) = MELK (human) (UniProt Q14680)
MYLK (human) = MYLK (human) (UniProt Q15746)
[1] = tested on: PAK2 (human), Q13177 [T402E]
PIM1 (human) = PIM1 (human) (UniProt P11309)
PIM3 (human) = PIM3 (human) (UniProt Q86V86)
PLK1 (human) = PLK1 (human) (UniProt P53350)
RIPK2 (human) = RIPK2 (human) (UniProt O43353)
RPS6KA3 KD1 KD2 (human) = RPS6KA3 KD1 KD2 (human) (UniProt P51812)
[2] = tested on: RPS6KB1 (human), P23443 [T412E]
[3] = tested on: SGK1 (human), O00141 [S422D]
SYK (human) = SYK (human) (UniProt P43405)
TBK1 (human) = TBK1 (human) (UniProt Q9UHD2)
TTK (human) = TTK (human) (UniProt P33981)

Sequence of MAP2K2 (human) (P36507 whole entry, looked up): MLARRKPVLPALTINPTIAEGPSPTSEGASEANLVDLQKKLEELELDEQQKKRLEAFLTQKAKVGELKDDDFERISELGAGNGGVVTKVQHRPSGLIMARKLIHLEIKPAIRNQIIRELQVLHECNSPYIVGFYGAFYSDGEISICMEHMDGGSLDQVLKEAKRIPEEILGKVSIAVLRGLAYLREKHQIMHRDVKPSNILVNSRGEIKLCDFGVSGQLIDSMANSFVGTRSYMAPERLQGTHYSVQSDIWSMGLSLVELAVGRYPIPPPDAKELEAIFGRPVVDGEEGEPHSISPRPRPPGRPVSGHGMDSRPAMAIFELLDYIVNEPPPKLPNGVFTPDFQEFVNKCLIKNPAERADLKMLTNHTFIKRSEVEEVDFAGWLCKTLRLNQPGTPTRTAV
Sequence of MYLK (human) (Q15746 whole entry, looked up): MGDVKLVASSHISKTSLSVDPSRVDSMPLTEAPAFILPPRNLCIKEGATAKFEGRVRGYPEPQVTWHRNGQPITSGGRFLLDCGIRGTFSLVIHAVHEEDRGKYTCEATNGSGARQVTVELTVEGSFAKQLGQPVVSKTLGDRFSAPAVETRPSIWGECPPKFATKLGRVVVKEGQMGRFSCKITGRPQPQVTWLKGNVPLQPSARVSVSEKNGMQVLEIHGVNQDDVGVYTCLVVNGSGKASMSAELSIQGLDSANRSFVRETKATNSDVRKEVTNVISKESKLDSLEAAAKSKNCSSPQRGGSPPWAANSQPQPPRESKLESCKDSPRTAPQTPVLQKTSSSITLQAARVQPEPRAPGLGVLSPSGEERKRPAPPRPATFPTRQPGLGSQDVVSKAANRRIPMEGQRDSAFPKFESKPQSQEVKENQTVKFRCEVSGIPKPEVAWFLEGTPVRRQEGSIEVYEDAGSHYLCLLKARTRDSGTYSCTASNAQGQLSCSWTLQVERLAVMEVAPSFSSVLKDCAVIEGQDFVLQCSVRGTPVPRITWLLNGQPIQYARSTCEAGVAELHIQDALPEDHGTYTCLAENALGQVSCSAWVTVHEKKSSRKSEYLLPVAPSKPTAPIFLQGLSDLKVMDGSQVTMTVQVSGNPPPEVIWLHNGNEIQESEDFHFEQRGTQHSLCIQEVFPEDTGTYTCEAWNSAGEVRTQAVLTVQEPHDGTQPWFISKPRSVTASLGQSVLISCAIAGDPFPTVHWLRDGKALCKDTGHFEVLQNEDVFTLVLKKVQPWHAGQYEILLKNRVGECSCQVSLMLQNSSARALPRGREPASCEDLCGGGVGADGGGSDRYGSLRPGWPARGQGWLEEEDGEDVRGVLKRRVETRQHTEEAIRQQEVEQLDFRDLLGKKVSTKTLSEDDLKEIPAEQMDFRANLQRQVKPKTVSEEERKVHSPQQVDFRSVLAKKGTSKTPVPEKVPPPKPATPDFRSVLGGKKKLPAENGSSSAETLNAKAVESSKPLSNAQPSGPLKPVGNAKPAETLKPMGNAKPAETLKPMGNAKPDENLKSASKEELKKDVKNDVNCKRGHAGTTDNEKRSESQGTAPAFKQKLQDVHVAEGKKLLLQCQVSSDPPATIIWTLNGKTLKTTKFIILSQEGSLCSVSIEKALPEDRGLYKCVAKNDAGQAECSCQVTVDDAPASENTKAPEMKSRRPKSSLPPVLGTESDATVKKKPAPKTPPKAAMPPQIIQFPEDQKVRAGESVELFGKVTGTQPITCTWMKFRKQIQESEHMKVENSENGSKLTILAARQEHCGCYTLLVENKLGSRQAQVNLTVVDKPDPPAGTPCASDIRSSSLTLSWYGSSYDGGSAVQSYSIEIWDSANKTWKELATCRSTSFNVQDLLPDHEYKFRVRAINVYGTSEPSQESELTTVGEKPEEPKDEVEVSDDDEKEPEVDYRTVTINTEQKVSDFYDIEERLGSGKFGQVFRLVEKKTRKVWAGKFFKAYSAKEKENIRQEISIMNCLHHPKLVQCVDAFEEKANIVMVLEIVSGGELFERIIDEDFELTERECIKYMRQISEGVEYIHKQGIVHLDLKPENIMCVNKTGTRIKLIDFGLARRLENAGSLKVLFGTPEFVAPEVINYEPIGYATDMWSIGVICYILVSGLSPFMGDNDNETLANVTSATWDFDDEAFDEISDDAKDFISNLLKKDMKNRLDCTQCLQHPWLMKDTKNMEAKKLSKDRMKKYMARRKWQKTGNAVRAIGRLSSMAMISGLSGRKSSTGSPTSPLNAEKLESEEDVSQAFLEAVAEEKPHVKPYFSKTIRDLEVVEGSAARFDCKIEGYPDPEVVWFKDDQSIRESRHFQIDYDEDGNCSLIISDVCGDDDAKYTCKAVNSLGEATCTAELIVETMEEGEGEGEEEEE
Sequence of FGFR1 (human) (P11362 whole entry, looked up): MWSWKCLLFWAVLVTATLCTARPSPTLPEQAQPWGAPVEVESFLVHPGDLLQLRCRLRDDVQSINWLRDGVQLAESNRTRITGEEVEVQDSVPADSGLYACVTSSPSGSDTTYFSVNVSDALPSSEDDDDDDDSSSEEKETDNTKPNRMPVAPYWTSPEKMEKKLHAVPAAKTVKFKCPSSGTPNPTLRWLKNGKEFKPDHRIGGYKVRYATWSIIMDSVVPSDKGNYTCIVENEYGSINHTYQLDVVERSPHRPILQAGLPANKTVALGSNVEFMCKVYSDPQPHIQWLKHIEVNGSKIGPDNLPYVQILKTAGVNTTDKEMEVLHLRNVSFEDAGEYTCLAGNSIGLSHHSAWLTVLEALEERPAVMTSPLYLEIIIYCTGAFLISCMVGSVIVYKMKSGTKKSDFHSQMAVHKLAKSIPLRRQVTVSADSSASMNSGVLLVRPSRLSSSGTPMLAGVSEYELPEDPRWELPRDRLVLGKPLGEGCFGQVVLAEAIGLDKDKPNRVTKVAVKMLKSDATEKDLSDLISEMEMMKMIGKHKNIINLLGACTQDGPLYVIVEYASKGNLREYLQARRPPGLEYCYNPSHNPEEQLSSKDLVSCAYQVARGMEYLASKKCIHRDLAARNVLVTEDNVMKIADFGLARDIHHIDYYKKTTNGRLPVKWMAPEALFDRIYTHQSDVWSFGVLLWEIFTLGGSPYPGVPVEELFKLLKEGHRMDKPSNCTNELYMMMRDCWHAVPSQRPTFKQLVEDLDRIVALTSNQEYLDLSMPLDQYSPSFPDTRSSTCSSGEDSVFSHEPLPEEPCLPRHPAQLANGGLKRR
Sequence of BRSK1 (human) (Q8TDC3 whole entry, looked up): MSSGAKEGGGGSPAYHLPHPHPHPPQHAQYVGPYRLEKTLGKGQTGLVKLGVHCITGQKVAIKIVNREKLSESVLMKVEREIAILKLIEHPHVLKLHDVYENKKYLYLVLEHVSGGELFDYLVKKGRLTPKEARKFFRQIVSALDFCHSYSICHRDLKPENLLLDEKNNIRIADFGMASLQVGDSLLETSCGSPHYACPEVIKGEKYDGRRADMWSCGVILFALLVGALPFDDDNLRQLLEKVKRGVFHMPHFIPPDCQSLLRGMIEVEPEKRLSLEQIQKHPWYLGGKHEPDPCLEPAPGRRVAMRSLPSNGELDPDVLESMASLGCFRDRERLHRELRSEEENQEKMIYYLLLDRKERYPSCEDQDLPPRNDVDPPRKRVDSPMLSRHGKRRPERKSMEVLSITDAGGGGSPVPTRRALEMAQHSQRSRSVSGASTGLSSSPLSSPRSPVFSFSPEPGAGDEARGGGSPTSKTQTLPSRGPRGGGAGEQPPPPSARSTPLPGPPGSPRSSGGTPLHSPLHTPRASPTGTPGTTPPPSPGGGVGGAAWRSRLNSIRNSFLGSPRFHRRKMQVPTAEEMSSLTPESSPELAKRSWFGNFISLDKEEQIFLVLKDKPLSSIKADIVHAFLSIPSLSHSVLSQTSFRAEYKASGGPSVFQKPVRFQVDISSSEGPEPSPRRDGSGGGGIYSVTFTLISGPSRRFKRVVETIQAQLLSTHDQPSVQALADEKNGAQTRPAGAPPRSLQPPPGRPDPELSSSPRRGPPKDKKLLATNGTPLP
Sequence of RPS6KB1 (human), P23443 [T412E] (P23443 whole entry T412E, looked up): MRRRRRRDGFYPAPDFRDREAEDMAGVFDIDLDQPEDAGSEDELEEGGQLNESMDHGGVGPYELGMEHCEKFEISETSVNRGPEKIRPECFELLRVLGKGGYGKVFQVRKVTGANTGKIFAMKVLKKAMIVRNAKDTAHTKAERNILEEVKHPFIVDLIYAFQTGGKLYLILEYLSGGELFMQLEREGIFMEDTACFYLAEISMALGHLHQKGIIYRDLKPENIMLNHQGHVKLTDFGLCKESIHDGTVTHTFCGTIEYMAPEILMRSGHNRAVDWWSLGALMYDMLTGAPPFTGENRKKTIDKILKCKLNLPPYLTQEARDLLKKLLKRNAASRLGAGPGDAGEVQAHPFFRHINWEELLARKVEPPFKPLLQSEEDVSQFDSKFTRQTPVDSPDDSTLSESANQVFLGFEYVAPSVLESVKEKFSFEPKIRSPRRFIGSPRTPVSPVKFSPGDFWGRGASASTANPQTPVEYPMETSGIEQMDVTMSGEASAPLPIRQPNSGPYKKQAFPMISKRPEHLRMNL
Sequence of MAPKAPK3 (human) (Q16644 whole entry, looked up): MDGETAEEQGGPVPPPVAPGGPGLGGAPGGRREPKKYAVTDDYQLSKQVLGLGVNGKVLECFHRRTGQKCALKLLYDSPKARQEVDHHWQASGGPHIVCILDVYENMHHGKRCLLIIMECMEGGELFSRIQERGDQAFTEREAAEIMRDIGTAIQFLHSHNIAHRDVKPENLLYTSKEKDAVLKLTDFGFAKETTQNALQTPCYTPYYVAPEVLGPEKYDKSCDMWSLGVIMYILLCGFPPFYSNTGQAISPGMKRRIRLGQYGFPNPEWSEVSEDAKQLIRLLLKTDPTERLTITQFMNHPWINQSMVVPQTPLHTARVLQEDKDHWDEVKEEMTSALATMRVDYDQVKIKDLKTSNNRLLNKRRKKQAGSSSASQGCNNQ

COc1ccc(-n2ncc3cnc(Nc4cc(OC)c(OC)c(OCCCN5CCN(C)CC5)c4)nc32)cc1
residual activity (AURKA (human); compound 0.1 µM): 18%
residual activity (AURKA (human); compound 1.0 µM): 3%
residual activity (BRSK1 (human); compound 0.1 µM): 74%
residual activity (BRSK1 (human); compound 1.0 µM): 17%
residual activity (BRSK2 (human); compound 0.1 µM): 84%
residual activity (BRSK2 (human); compound 1.0 µM): 35%
residual activity (CDK2 CCNA2 (human); compound 0.1 µM): 34%
residual activity (CDK2 CCNA2 (human); compound 1.0 µM): 7%
residual activity (CLK2 (human); compound 0.1 µM): 30%
residual activity (CLK2 (human); compound 1.0 µM): 11%
residual activity (CSK (human); compound 0.1 µM): 65%
residual activity (CSK (human); compound 1.0 µM): 38%
residual activity (CSNK1D (human); compound 0.1 µM): 95%
residual activity (CSNK1D (human); compound 1.0 µM): 69%
residual activity (EPHA4 (human); compound 0.1 µM): 14%
residual activity (EPHA4 (human); compound 1.0 µM): 5%
residual activity (EPHB2 (human); compound 0.1 µM): 23%
residual activity (EPHB2 (human); compound 1.0 µM): 6%
residual activity (FGFR1 (human); compound 0.1 µM): 20%
residual activity (FGFR1 (human); compound 1.0 µM): 8%
residual activity (FLT1 (human); compound 0.1 µM): 5%
residual activity (FLT1 (human); compound 1.0 µM): 2%
residual activity (INSR (human); compound 0.1 µM): 79%
residual activity (INSR (human); compound 1.0 µM): 21%
residual activity (INSRR (human); compound 0.1 µM): 78%
residual activity (INSRR (human); compound 1.0 µM): 35%
residual activity (IRAK4 (human); compound 0.1 µM): 64%
residual activity (IRAK4 (human); compound 1.0 µM): 20%
residual activity (JAK2 JH1 JH2 (human); compound 0.1 µM): 4%
residual activity (JAK2 JH1 JH2 (human); compound 1.0 µM): 3%
residual activity (MAP2K2 (human); compound 0.1 µM): 55%
residual activity (MAP2K2 (human); compound 1.0 µM): 28%
residual activity (MAP3K11 (human); compound 0.1 µM): 15%
residual activity (MAP3K11 (human); compound 1.0 µM): 8%
residual activity (MAP3K7 TAB1 (human); compound 0.1 µM): 14%
residual activity (MAP3K7 TAB1 (human); compound 1.0 µM): 19%
residual activity (MAPK12 (human); compound 0.1 µM): 113%
residual activity (MAPK12 (human); compound 1.0 µM): 95%
residual activity (MAPK8 (human); compound 0.1 µM): 89%
residual activity (MAPK8 (human); compound 1.0 µM): 38%
residual activity (MAPKAPK3 (human); compound 0.1 µM): 97%
residual activity (MAPKAPK3 (human); compound 1.0 µM): 81%
residual activity (MARK4 (human); compound 1.0 µM): 24%
residual activity (MELK (human); compound 0.1 µM): 37%
residual activity (MELK (human); compound 1.0 µM): 27%
residual activity (MYLK (human); compound 0.1 µM): 100%
residual activity (MYLK (human); compound 1.0 µM): 72%
residual activity ([1]; compound 0.1 µM): 50%
residual activity ([1]; compound 1.0 µM): 14%
residual activity (PIM1 (human); compound 0.1 µM): 96%
residual activity (PIM1 (human); compound 1.0 µM): 62%
residual activity (PIM3 (human); compound 0.1 µM): 91%
residual activity (PIM3 (human); compound 1.0 µM): 63%
residual activity (PLK1 (human); compound 0.1 µM): 90%
residual activity (PLK1 (human); compound 1.0 µM): 91%
residual activity (RIPK2 (human); compound 0.1 µM): 28%
residual activity (RIPK2 (human); compound 1.0 µM): 14%
residual activity (RPS6KA3 KD1 KD2 (human); compound 0.1 µM): 38%
residual activity (RPS6KA3 KD1 KD2 (human); compound 1.0 µM): 9%
residual activity ([2]; compound 0.1 µM): 70%
residual activity ([2]; compound 1.0 µM): 28%
residual activity ([3]; compound 0.1 µM): 107%
residual activity ([3]; compound 1.0 µM): 61%
residual activity (SYK (human); compound 0.1 µM): 58%
residual activity (SYK (human); compound 1.0 µM): 13%
residual activity (TBK1 (human); compound 0.1 µM): 14%
residual activity (TBK1 (human); compound 1.0 µM): 8%
residual activity (TTK (human); compound 0.1 µM): 81%
residual activity (TTK (human); compound 1.0 µM): 64%

NC(=O)c1c(NC(=O)C2CC2)sc2c1CCCC2
residual activity (AURKA (human); compound 1.0 µM): 87%
residual activity (AURKA (human); compound 10.0 µM): 22%
residual activity (BRSK1 (human); compound 1.0 µM): 97%
residual activity (BRSK1 (human); compound 10.0 µM): 90%
residual activity (BRSK2 (human); compound 1.0 µM): 99%
residual activity (BRSK2 (human); compound 10.0 µM): 73%
residual activity (CDK2 CCNA2 (human); compound 1.0 µM): 89%
residual activity (CDK2 CCNA2 (human); compound 10.0 µM): 48%
residual activity (CLK2 (human); compound 1.0 µM): 89%
residual activity (CLK2 (human); compound 10.0 µM): 49%
residual activity (CSK (human); compound 1.0 µM): 96%
residual activity (CSK (human); compound 10.0 µM): 88%
residual activity (CSNK1D (human); compound 1.0 µM): 96%
residual activity (CSNK1D (human); compound 10.0 µM): 81%
residual activity (EPHA4 (human); compound 1.0 µM): 114%
residual activity (EPHA4 (human); compound 10.0 µM): 53%
residual activity (EPHB2 (human); compound 1.0 µM): 104%
residual activity (EPHB2 (human); compound 10.0 µM): 62%
residual activity (FGFR1 (human); compound 1.0 µM): 105%
residual activity (FGFR1 (human); compound 10.0 µM): 46%
residual activity (FLT1 (human); compound 1.0 µM): 45%
residual activity (FLT1 (human); compound 10.0 µM): 9%
residual activity (INSR (human); compound 1.0 µM): 101%
residual activity (INSR (human); compound 10.0 µM): 97%
residual activity (INSRR (human); compound 1.0 µM): 97%
residual activity (INSRR (human); compound 10.0 µM): 52%
residual activity (IRAK4 (human); compound 1.0 µM): 68%
residual activity (IRAK4 (human); compound 10.0 µM): 28%
residual activity (JAK2 JH1 JH2 (human); compound 1.0 µM): 104%
residual activity (JAK2 JH1 JH2 (human); compound 10.0 µM): 60%
residual activity (MAP2K2 (human); compound 1.0 µM): 93%
residual activity (MAP2K2 (human); compound 10.0 µM): 74%
residual activity (MAP3K11 (human); compound 1.0 µM): 89%
residual activity (MAP3K11 (human); compound 10.0 µM): 37%
residual activity (MAP3K7 TAB1 (human); compound 1.0 µM): 92%
residual activity (MAP3K7 TAB1 (human); compound 10.0 µM): 53%
residual activity (MAPK12 (human); compound 1.0 µM): 93%
residual activity (MAPK12 (human); compound 10.0 µM): 94%
residual activity (MAPK8 (human); compound 1.0 µM): 97%
residual activity (MAPK8 (human); compound 10.0 µM): 102%
residual activity (MAPKAPK3 (human); compound 1.0 µM): 100%
residual activity (MAPKAPK3 (human); compound 10.0 µM): 93%
residual activity (MARK4 (human); compound 1.0 µM): 105%
residual activity (MARK4 (human); compound 10.0 µM): 69%
residual activity (MELK (human); compound 1.0 µM): 71%
residual activity (MELK (human); compound 10.0 µM): 44%
residual activity (MYLK (human); compound 1.0 µM): 96%
residual activity (MYLK (human); compound 10.0 µM): 49%
residual activity ([1]; compound 1.0 µM): 92%
residual activity ([1]; compound 10.0 µM): 96%
residual activity (PIM1 (human); compound 1.0 µM): 96%
residual activity (PIM1 (human); compound 10.0 µM): 87%
residual activity (PIM3 (human); compound 1.0 µM): 111%
residual activity (PIM3 (human); compound 10.0 µM): 68%
residual activity (PLK1 (human); compound 1.0 µM): 98%
residual activity (PLK1 (human); compound 10.0 µM): 100%
residual activity (RIPK2 (human); compound 1.0 µM): 86%
residual activity (RIPK2 (human); compound 10.0 µM): 36%
residual activity (RPS6KA3 KD1 KD2 (human); compound 1.0 µM): 107%
residual activity (RPS6KA3 KD1 KD2 (human); compound 10.0 µM): 89%
residual activity ([2]; compound 1.0 µM): 100%
residual activity ([2]; compound 10.0 µM): 98%
residual activity ([3]; compound 1.0 µM): 109%
residual activity ([3]; compound 10.0 µM): 107%
residual activity (SYK (human); compound 1.0 µM): 102%
residual activity (SYK (human); compound 10.0 µM): 106%
residual activity (TBK1 (human); compound 1.0 µM): 99%
residual activity (TBK1 (human); compound 10.0 µM): 107%
residual activity (TTK (human); compound 1.0 µM): 100%
residual activity (TTK (human); compound 10.0 µM): 80%
